# Reference: patent US8354265B2, “Chemicals promoting the growth of N-acylhomoserine lactone-degrading bacteria” (Centre National de la Recherche Scientifique, priority 2007, dated 2013)
# Tests used:
# [1] = system: bacterial populations of potato roots; experiment: DGGE analysis of bacterial populations associated with roots; format: in vivo, Solanum tuberosum; conditions: D14 and D28; 0.1 and 0.4 mL/L, most visible at 0.4 mL/L
# Experimental: FIG. 11: DGGE analyses. […] Numbered bands on pictures were analyzed by sequencing. For each sequence or group of sequences, one of the closest rrs sequences was indicated. It is identified by its Genbank number, the similarity indice (SI) (calculated at Ribosomal Database Project http://rdp.cme.msu.edu/), and the name and taxonomical position of the bacteria of origin (Bact, Bacteria; BC, Bacteroidetes/Chlorobi group; Firm, Firmicutes; α,α-proteobacteria; β,β-proteobacteria; and γ,γ-proteobacteria).
# The structure of the bacterial population associated with roots system (ca. 10 g) was analyzed by DGGE of PCR-amplified rrs region (position 341-534 of E. coli sequence). Two samples were analyzed from each batch. The DGGE analysis was performed by Microbial Insights (Rockford, Tenn., USA), as previously described (d'Angelo-Picard et al., 2004). Band positions in each line were converted to 0 (absence) and 1 (presence) value and assembled in a matrix. Profile similarity was calculated with the Dice algorithm using DistAFLP software (http://pbil.univ-lyon1.fr/ADE-4/microb). Sequence identification of selected bands was performed using the sequence match facility of the Ribosomal Database Project (http://rdp.cme.msu.edu/), according to NCBI taxonomy (http://www.ncbi.nlm.nih.gov/Taxonomy/). […]
# bacterial consortia = experiment: Inactivation of C6-HSL and OC8-HSL by mannitol, 6CL, GCL and HTN consortia; format: cell-based
# From the text: The Mannitol-, 6CL-, GCL-, and HTN-consortia were compared for their capacity to inactivated OC8-HSL, the major NAHL produced by the plant pathogen Erwinia carotovora subsp. atroseptica 6276, as well as for their biocontrol activity against this pathogen in potato maceration assay.
# [2] = system: bacterial consortia from unplanted soil; experiment: C6-HSL inactivation by bacterial consortia enriched from unplanted soil on the compound as sole carbon source; format: cell-based; conditions: soil and rhizospheric samples; among 25 assayed molecules
# [3] = system: NAHL-degrading bacteria in the nutritive solution; experiment: Ratio of NAHL-degrading bacteria in unplanted batches of nutritive solution; format: cell-based; conditions: for percentage of NAHL-degrading bacteria in the nutritive solution: without plants
# Experimental: (§1) The non sterile batches (40×60×8 cm) contained 13 L of the nutritive solution Hydrobloom (Cellmax, UK) with Nitrogen at 0.80 g/L, Phosphore at 0.56 g/L and Potassium at 1.48 g/L as major components. The solution was diluted from a concentrated stock solution (×250) with non sterile water from the public water system. One hundred plants of Solanum tuberosum var. Allians, which were recovered from cultures performed under sterile conditions, were placed into holes (3 cm space to each other) of batch covers. Planted batches were placed in the greenhouse (Comité Nord Plants de Pomme de Terre, Bretteville-du-Grand-Caux) under natural light at 10-15° C. (night) and 25-30° C. (day). […] An untreated batch was used as a control. One gram of roots (fresh weight) was resuspended in 10 mL of sterile MgSO4 10 mM, diluted and spread on TSA and King B plates to isolate total cultivable bacteria and fluorescent Pseudomonas, respectively. Three samples were analyzed from each batch at each time D0, D14 and D28; from each sample, thirty isolates from TSA plates and thirty fluorescent isolates from King B plates were individually tested from production and inactivation of NAHL signal.
# (§2) Bacterial isolates grown in 96-microwell plates were individually tested from production of NAHL with the A. tumefaciens biosensor NT1 (pZNLR4) and the inactivation of the C6-HSL signal, as described previously (d'Angelo-Picard et al. 2004).
# Allians was evaluated. The plants were cultivated in vitro under sterile conditions, then placed into batches in a greenhouse at Bretteville-du-Grand-Caux (France) in a non-sterile environment. Especially, a non-sterile nutritive solution was used and served as a source of naturally occurring bacteria. […] The ratio of NAHL-degrading bacteria in the nutritive solution was evaluated before the treatment and 14-day later. This percentage increased from 10±2 to 30±2 in the case of the 6CL-treated batch and from 10±2 to 70±2 in the GCL-treated batch. From the 6CL- and GCL-treated batches, 10 NAHL-degrading bacteria were identified by their rrs sequence: 9 belonged to the Delftia genus, the other one to the Rhodococcus genus.
# [4] = system: NAHL-degrading and NAHL-producing bacteria of potato rhizosphere; experiment: Two independent analyses of 6CL and GCL treatments on planted batches (FIG. 7); format: in vivo, Solanum tuberosum var. Allians
# From the text: FIG. 7: Percentage of NAHL-degrading and NAHL-producing strains in potato rhizosphere. […] An untreated batch was used as a control in the two independent sets of experiments. The mean of three replicates is shown. Statistically different values (Student t test; 0.05) are noted by different letters.
# as §1, §2
# An untreated batch was used as a control.
# young plants = experiment: Sensitivity of young plants to the chemicals; conditions: high concentrations (1 mL/L); data not shown
# [5] = 6CL- and GCL-treated batches together, rrs sequence
compound,measurement,setting,value
"CCC1CCC(=O)O1 (stereo not drawn) [GCL, gamma-caprolactone]",change of bacterial populations by DGGE,[1],drastic remodelling of bacterial populations
same,speed of C6-HSL signal inactivation versus Mannitol consortia,bacterial consortia,inactivated more rapidly
same,speed of OC8-HSL signal inactivation versus Mannitol consortia,bacterial consortia,inactivated more rapidly
same,growth stimulation of NAHL-degrading bacteria after enrichment procedures,[2],stimulated the growth of NAHL-degrading bacteria
same,NAHL-degrading bacteria belonging to the Delftia genus (of 10 identified),[3]; [5],9
same,NAHL-degrading bacteria belonging to the Rhodococcus genus (of 10 identified),[3]; [5],one
same,percentage of NAHL-degrading bacteria in the nutritive solution,[3]; 14-day after treatment at 1 mL/L,70±2%
same,percentage of NAHL-degrading bacteria in the nutritive solution,[3]; before the treatment,10±2%
same,cell density (CFU/g of root),"[4]; 14 days after application at 0.4 mL/L, two experiments",consistently increased
same,level of NAHL-degrading bacteria among fluorescent Pseudomonads,[4]; after GCL-treatments,no modification
same,percentage of NAHL-degrading bacteria among total cultivable bacteria,[4]; applied to hydroponic plant cultures (FIG. 7),significant increase
same,sensitivity of young plants,young plants,sensitive
